Source: patent US20090181901A1, “COMPOSITIONS AND METHODS TO INCREASE BIOAVAILABILITY OF CAROTENOIDS” (priority 2007, published 2009)

Legend:
[1] = In vitro stability of lutein in pH 7.0 buffer (UV-VIS degradation ratio); type: physicochemical
Description: 10.0 mg ([…]) lutein in 10 ml was added to a volumetric flask and diluted to volume with THF. In a small beaker, 0.50 g PEO (20) sorbitan monooleate was dissolved in 15.0 g de-ionized water. 1.0 ml lutein THF solution was added into the water solution and sonicated until a clear yellow micro-emulsion was formed.
10.0 mg (0.006 mmol) bilberry extract was added to a second 10 ml volumetric flask and filled to volume with de-ionized water. 1.0 ml bilberry extract solution was transferred to a small beaker and sonicated until a homogeneous solution was obtained. 1.0 ml of the bilberry solution was placed into a 10 ml colorless volumetric flask and filled to volume with sodium phosphate buffer (pH=7.0). The buffered solution was placed into a 37° C. water bath for 5 hours. UV-VIS spectrometery was used to analyze the degradation ratio. All samples were made alike. Similarly, L-cysteine was used in place of bilberry extract.

[2] = Cellular uptake of Lutein (free form) in CaCo-2 cells; type: in vitro ADME; conditions: human, 10 mg Lutein/100 mL medium, alone or plus 160 mg bilberry extract or 180 mg Bil/Cys
Description: (§1) CaCo-2 cells were cultured in Dulbeccos's Modified Eagle Medium containing 20% fetal bovine serum, 1.2% nonessential amino acids, 0.83 mM L-glutamine, 1.2% penicillin-streptomycin and 0.1% mercaptoethanole in an atmosphere of 5% CO2 and 95% air at 37° C.
(§2) Cells were grown in 75 cm^2 culture-flasks (T75) and sub-cultured after one week (every other day washed with PBS buffer, removed with trypsin and transferred to a new culture flask).
(§3) For experiments, cells were seeded in 6 well plates at a density of 3×10^5 cells per well and grown in an atmosphere of 5% CO2 and 95% air at 37° C. 7 to 8 days until confluence was reached. The cells were washed with PBS buffer, incubated with 4 ml medium containing the suspended samples for 30, 60 or 120 minutes.
After the corresponding incubation time, the cells were washed with PBS buffer and removed using 1 ml of TBME. Cells were sonicated 3 times for 30 seconds, centrifuged for 10 min and the pellets were discarded. The supernatant was used as sample for HPLC (lutein). For luteindipalmitinic-ester the supernatant was hydrolyzed by reflux heating in ethanol/HCl.
Cmax was taken directly from the concentration/time data obtained from the analysis. […]
Quantification was performed by external standardization after linear regression analysis. […]

CaCo-2 cells [3] = test: Cellular uptake of Lutein and Zeaxanthine in CaCo-2 cells with or without black currant extract; type: in vitro ADME; conditions: for Level observed in cells: 9 mg Lutein+1 mg Zeaxanthine/100 mL; for Absorption in presence of black currant extract (in words): compared with absence of black currant extract; for Factor by which absorption is increased in presence of Black Currant extract: with vs without Black Currant extract
Description: CaCo-2 cells were cultured in Dulbeccos's Modified Eagle Medium (DMEM) containing 20% fetal bovine serum, 1.2% nonessential amino acids, 0.83 mM L-glutamine, 1.2% penicillin-streptomycin and 0.1% mercaptoethanole in an atmosphere of 5% CO2 and 95% air at 37° C.
as §2
as §3, with “C.,” for “C.”
After the corresponding incubation time, the cells were washed with PBS buffer and removed using 1 ml of TBME. Cells were sonicated 3 times for 30 seconds, centrifuged for 10 min and the pellets were discarded. The supernatant was used as sample for HPLC (lutein).
Cmax was taken directly from the concentration/time data obtained from the analysis.
The concentration/time data obtained from the analysis were further submitted to non-compartmental calculation of the AUC0-120min using the trapezoidal rule.
(§4) Quantification was performed by external standardization after linear regression analysis.
CaCo-2 cells were incubated with (9 mg Lutein+1 mg Zeaxanthine, see Table 6)/100 mL with or without 160 mg black currant extract/100 mL medium. Incubations were performed at 37° C. for 30, 60 and 120 minutes. At each time point, 3 wells were processed for analysis by collection of the incubation medium and extraction of Lutein/Zeaxanthine absorbed into the cells.

[4] = Stability of Lutein and Zeaxanthine in incubation medium (control experiment); type: physicochemical; conditions: for Stability in incubation medium: 37° C.; for Breakdown in incubation medium (in words): test assay conditions, 120 minutes at 37° C.
Source text: In a control experiment, the stability of the analytes under the experimental conditions was investigated.

CaCo-2 cells [5] = test: Cellular uptake of Lutein (esterified form) in CaCo-2 cells; type: in vitro ADME; conditions: 20 mg Luteindipalmitinic-ester/100 mL medium, alone or plus 160 mg bilberry extract or 180 mg Bil/Cys; 37° C.; lutein quantified after hydrolysis
Description: as §1, §2
as §3, with “minutes. […]” for “minutes.”
as §4
CaCo-2 cells were incubated with 20 mg Luteindipalmitinic-ester/100 mL medium, 20 mg (0.019 mmol) Luteindipalmitinic-ester plus 160 mg bilberry extract (25% anthocyanins, 0.08 mmol)/100 mL medium or 20 mg Luteindipalmitinic-ester plus 180 mg Bil/Cys [equivalent to 162 mg bilberry (25% anthocyanins, 0.081 mmol) and 18 mg (0.149 mmol) L-cysteine] at 37° C. for 30, 60 and 120 minutes. […] After hydrolysis of the luteinester, lutein was quantified in the cells.

[6] = Time 0 min, with BC (160 mg black currant extract/100 mL)
[7] = Time 30 min, with BC (160 mg black currant extract/100 mL)
[8] = Time 60 min, with BC (160 mg black currant extract/100 mL)
[9] = Time 120 min, with BC (160 mg black currant extract/100 mL)
[10] = with BC (160 mg black currant extract/100 mL)
[11] = Time 120 min, slight increase ascribed to evaporation of the medium

Relative cellular uptake (sum of lutein and Zeaxanthine set to 100%) (CaCo-2 cells [3]; 30 min, With Black Currant) [%]	Relative cellular uptake (sum of lutein and Zeaxanthine set to 100%) (CaCo-2 cells [3]; 30 min, Without Black Currant) [%]	Relative cellular uptake (sum of lutein and Zeaxanthine set to 100%) (CaCo-2 cells [3]; 60 min, With Black Currant) [%]	Relative cellular uptake (sum of lutein and Zeaxanthine set to 100%) (CaCo-2 cells [3]; 60 min, Without Black Currant) [%]	Relative cellular uptake (sum of lutein and Zeaxanthine set to 100%) (CaCo-2 cells [3]; 120 min, With Black Currant) [%]	Relative cellular uptake (sum of lutein and Zeaxanthine set to 100%) (CaCo-2 cells [3]; 120 min, Without Black Currant) [%]	Level observed in cells (CaCo-2 cells [3]; [6]) [µg/mL]	Level observed in cells (CaCo-2 cells [3]; Time 0 min, without BC) [µg/mL]	Level observed in cells (CaCo-2 cells [3]; [7]) [µg/mL]	Level observed in cells (CaCo-2 cells [3]; Time 30 min, without BC) [µg/mL]	Level observed in cells (CaCo-2 cells [3]; [8]) [µg/mL]	Level observed in cells (CaCo-2 cells [3]; Time 60 min, without BC) [µg/mL]	Level observed in cells (CaCo-2 cells [3]; [9]) [µg/mL]	Level observed in cells (CaCo-2 cells [3]; Time 120 min, without BC) [µg/mL]	Absorption in presence of black currant extract (in words) (CaCo-2 cells [3])	AUC0-120 of cellular uptake (CaCo-2 cells [3]; [10]) [µg·min/mL]	Cmax of cellular uptake (CaCo-2 cells [3]; [10]) [µg/mL]	Factor by which absorption is increased in presence of Black Currant extract (CaCo-2 cells [3])	AUC0-120 of cellular uptake (CaCo-2 cells [3]; without BC) [µg·min/mL]	Cmax of cellular uptake (CaCo-2 cells [3]; without BC) [µg/mL]	Compound	other results
																				N[C@@H](CS)C(=O)O [L-Cys, L-Cysteine]	Residual Ratio of lutein ([1]; 0.2 mg (0.17 μmol/ml) L-Cys, pH 7.0, 37° C., 5 hours, blank 86.82): 90.22%; Residual Ratio of lutein ([1]; 1.0 mg (0.8 μmol/ml) L-Cys, 4.3 μg free lutein, phosphate buffer pH 7.0, 37° C., 5 hours, blank (lutein alone) 86.82): 94.52%; Residual Ratio of lutein ([1]; 2.0 mg (1.7 μmol/ml) L-Cys, 4.3 μg free lutein, pH 7.0, 37° C., 5 hours, blank 86.82): 94.47%; Residual Ratio of lutein ([1]; 5.0 mg (4.1 μmol/ml) L-Cys, 4.3 μg free lutein, pH 7.0, 37° C., 5 hours, blank 86.82): 95.41%; Residual Ratio of lutein ([1]; 10.0 mg (8.2 μmol/ml) L-Cys, 4.3 μg free lutein, pH 7.0, 37° C., 5 hours, blank 86.82): 94.74%; Protection of lutein against degradation (in words) ([1]; neutral environmental conditions): remarkable protection; Concentration at which an enhanced protective effect on lutein was noted ([1]; pH 7.0, 37° C., 5 hours): about 4.1 μmol/ml
87.3	85.6	85.8	85.5	86.6	87.3	0	0	2.120	0.776	2.346	1.420	1.897	1.170	better absorption	226.1	2.346	~2	122.3	1.420	CC1=C[C@H](O)CC(C)(C)[C@H]1/C=C/C(C)=C/C=C/C(C)=C/C=C/C=C(C)/C=C/C=C(C)/C=C/C1=C(C)C[C@@H](O)CC1(C)C [Lutein, (3R,3′R,6′R)-beta, epsilon-carotene-3,3′-diol]	AUC(0-t) at 10 mg/100 mL ([2]; 37° C., 0-120 min, read-out: Total uptake of Lutein (AUC0-120min, trapezoidal rule) (converted)): 2.25 µg·h/mL; Cmax at 10 mg/100 mL ([2]; 37° C., 30, 60, 120 minutes): 1.53 µg/mL; Stability in incubation medium ([4]; Time 0 min): 100%; Stability in incubation medium [4, 11]: 108%; Breakdown in incubation medium (in words) [4]: no breakdown
																				CCCCCCCCCCCCCCCC(=O)O[C@@H]1CC(C)=C(/C=C/C(C)=C/C=C/C(C)=C/C=C/C=C(C)/C=C/C=C(C)/C=C/[C@H]2C(C)=C[C@H](OC(=O)CCCCCCCCCCCCCCC)CC2(C)C)C(C)(C)C1 [Luteinester, Luteindipalmitinic-ester]	Cmax of cellular uptake of Luteinester (CaCo-2 cells [5]): 0.530 µg/mL; Total uptake of Luteinester (AUC0-120min, trapezoidal rule) (CaCo-2 cells [5]): 42.2 µg·min/mL
12.7	14.4	14.2	14.5	13.4	12.7	0	0	0.309	0.131	0.363	0.240	0.314	0.181	better absorption	35.01	0.363	~2	20.17	0.240	CC1=C(/C=C/C(C)=C/C=C/C(C)=C/C=C/C=C(C)/C=C/C=C(C)/C=C/C2=C(C)C[C@@H](O)CC2(C)C)C(C)(C)C[C@H](O)C1 [Zeaxanthine, (3R,3′R)-beta, beta carotene-3,3′-diol]	Absorption of zeaxanthine compared to lutein (in words) (CaCo-2 cells [3]): better absorption as compared to lutein; Stability in incubation medium ([4]; Time 0 min): 100%; Stability in incubation medium [4, 11]: 106%; Breakdown in incubation medium (in words) [4]: no breakdown
